The values that follow come from patent US9012439B2, “Use of electrophilic compounds for inducing platelet production or maintaining platelet function” (University of Rochester, priority 2007, dated 2015).

The subject of one data set is C57BL/6 mice. Kind of data set: Irradiation-induced thrombocytopenia (5 Gy total body irradiation). Type of data set: in vivo, mouse (C57BL/6). Here is the method: Seven or 8-week-old male C57BL/6 mice (Jackson Laboratories) were either exposed to 5 Gy cesium (Cs^137) total body irradiation (TBI) using a Model 8114 6000 Curie Shepherd Cs^137 irradiator (approximately 3200 Curie sealed Cs^137 source) with a dose rate of […] or left unexposed. Mice (n=4) received intravenous injections of vehicle (8% DMSO) or 15d-PGJ2 (1 mg/kg) or CDDO-Me (250 μg/kg) for 4 consecutive days from day 1 (days 1, 2, 3 and 4 post-irradiation). Blood was obtained from the aorta or the orbital sinus. Platelets were counted prior to radiation exposure and after radiation exposure on day 10, day 22, and day 31 in Example 7, or days 4, 10, 16, and 21 in Example 9 using the Heska® CBC-Diff™ Veterinary Analyzer (Fort Collins, Colo.). Data are expressed as average platelet counts from two separate experiments. For the unirradiated mice, platelets were counted on day 4, day 10, and day 15 in Example 7 or on the same days in Example 9.

The test system of data set [1] is primary human megakaryocytes. Put plainly: Platelet production from human cord blood CD34+-derived megakaryocytes. The format is cell-based. To be noted: 10 μM, 24 h. Here is the method: Human CD34+ cord blood cells were obtained from the National Disease Research Interchange (NDRI, Philadelphia, Pa.). Cells were plated at 2.5×10^5 cells per well in a 12-well plate and cultured in serum-free medium as previously described (Zeuner et al., “Chemotherapy-induced Thrombocytopenia Derives from the Selective Death of Megakaryocyte Progenitors and Can Be Rescued by Stem Cell Factor,” Cancer Res 67:4767-4773 (2007), which is hereby incorporated by reference in its entirety) and supplemented with 100 ng/mL of rhTPO. After 14 days in culture, megakaryocytes were identified by staining with a CD61-FITC antibody and analyzed on a BD Biosciences FACSCalibur flow cytometer. Data were analyzed using FlowJo software (Treestar, Ashland, Oreg.). Cell images were captured using an inverted microscope (Olympus IX81). Platelets were isolated from megakaryocytes by centrifugation at 150 xg for 10 min. Supernatants underwent sequential centrifugation (500 xg for 10 min and 1000×g for 10 min). The remaining platelet pellet was fixed then permeabilized with a CD61 or CD41 antibody. 7-AAD (BD Pharmingen) was added for 10 min before analyzing the cells by flow cytometry. Platelets were identified using three well-described parameters (Patel et al., “The Biogenesis of Platelets from Megakaryocyte Proplatelets,” J Clin Invest 115:3348-3354 (2005); Breton-Gorius et al., “Expression of Platelet Proteins During the In Vitro and In Vivo Differentiation of Megakaryocytes and Morphological Aspects of Their Maturation,” Semin Hematol 23:43-67 (1986); Ogura et al., “Establishment of a Novel Human Megakaryoblastic Leukemia Cell Line, MEG-01, With Positive Philadelphia Chromosome,” Blood 66:1384-1392 (1985) and Franks et al., “A Fluorescence Microscopy Method for Quantifying Levels of Prostaglandin Endoperoxide H Synthase-1 and CD-41 in MEG-01 Cells,” Biol Proced Online 3:54-63 (2001), each of which is hereby incorporated by reference in its entirety), size (using normal human platelets as a control), presence of CD61 or CD41 and lack of DNA as determined by the absence of 7-AAD staining Ten thousand platelet events were collected and platelets were quantified by rate (platelet events/second) (Chung et al., “Platelet Activation in Acute, Decompensated Congestive Heart Failure,” Thromb Res 120:709-713 (2007), which is hereby incorporated by reference in its entirety.

With `CCCCCC=CC=C1C(=O)C=C[C@@H]1CC=CCCCC(=O)O` [15d-PGJ2, 15-deoxy-Δ^12,14 prostaglandin J2], the “weight versus vehicle-treated mice” value in the data set on C57BL/6 mice (1 mg/kg IV for 4 consecutive days) is on record as “no differences in weight”. The platelet numbers entry in the data set with C57BL/6 mice (5 Gy, 1 mg/kg IV days 1-4, by day 31) is on record as “approximately 800,000 /μL”. Also, the “platelet recovery compared to vehicle mice” value in the data set on C57BL/6 mice (5 Gy, 1 mg/kg IV days 1-4, day 22 and day 31) is listed as “accelerated platelet recovery”. Moreover, the “number of platelets generated from human megakaryocytes” value in data set [1] (CD61+ cells from cord blood CD34+ cells) was “doubled”. The proplatelet formation entry in data set [1] (human megakaryocytes, microscopy) was “induced proplatelet formation”.
